From paper PMC6277375, “Pharmacological profile of the neuropeptide S receptor: Dynamic mass redistribution studies” (Pharmacology Research & Perspectives, 2018)
Marks after values point to notes of the source that are not given here. Square brackets hold non-standard residues; d marks the D form. Ends that are not written are not given here. Peptide text beside a SMILES is read from it. Bip = N[C@@H](Cc1ccc(-c2ccccc2)cc1)C(=O)O; Aib = CC(C)(N)C(=O)O

Tests used:
murine NPSR = target: T1, murine NPSR (Mus musculus, UniProt Q8BZP8); experiment: Dynamic mass redistribution (DMR) assay in HEK293mNPSR cells; assay type: cell-based; conditions: for DMR response, HEK293mNPSR pm ± SEM: peak at 60 minute, mean ± SEM, duplicate; for EC50 / intrinsic activity α ± SEM / Agonist potency pEC50 (CL95%): DMR; for EC50 / Agonist potency pEC50 (CL95%): agonism protocol, 60 minute recording, at least three experiments in duplicate; for EC50: read-out: Agonist potency pEC50 (CL95%) (converted); for fold less potent than NPS (DMR): agonist potency relative to NPS; for Effect of inhibitor on NPS-evoked DMR response: FR900359 1 μmol L^−1 (60 minute before NPS), PTX 100 ng mL^−1 (24 hours before), rolipram 10 μmol L^−1 (90 minute before)
T1 construct: expressed in transfected cells
T1 sequence (Q8BZP8 1-371): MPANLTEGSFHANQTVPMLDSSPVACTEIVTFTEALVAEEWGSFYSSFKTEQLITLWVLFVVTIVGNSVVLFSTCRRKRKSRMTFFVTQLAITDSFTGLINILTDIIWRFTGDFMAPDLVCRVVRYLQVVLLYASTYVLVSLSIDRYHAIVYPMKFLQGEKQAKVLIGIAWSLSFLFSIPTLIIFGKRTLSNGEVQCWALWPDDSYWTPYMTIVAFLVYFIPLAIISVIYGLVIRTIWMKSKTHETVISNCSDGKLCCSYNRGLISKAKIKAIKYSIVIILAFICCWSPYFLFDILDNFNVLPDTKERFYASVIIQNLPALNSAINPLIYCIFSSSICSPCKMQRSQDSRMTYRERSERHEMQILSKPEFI
Experimental: (§1) HEK293 cells stably expressing the murine NPSR receptor (HEK293mNPSR) were described previously.3 Wild‐type HEK293 cells were used as a control. Cells were maintained in Dulbecco's Medium (DMEM) supplemented with 10% fetal bovine serum, 100 U/mL penicillin, 100 μg/mL streptomycin and, 2 mmol L^−1 L‐glutamine. The medium was complemented with 100 mg/L hygromycin for HEK293mNPSR. Cells were cultured at 37°C in 5% CO2 humidified air.
Confluent cells were subcultured using trypsin/EDTA and used for experiments. […] On the day of the experiment, cells were manually washed twice and maintained with assay buffer for 90 minutes before DMR experiments. DMR was monitored in real time with a temporal resolution of 22 seconds throughout the assay. Experiments were performed at 37°C, using an EnSight Multimode Plate Reader (PerkinElmer), that uses the Corning® Epic® Technology to measure the DMR signal. Agonism protocol: a 5‐minute baseline was first established, followed by adding compounds manually in a volume of 10 μL and recording compounds‐triggered DMR signal for 60 minute. Antagonism protocol: antagonists were added manually 25 minute before reading the 5‐minute baseline. After baseline establishment, NPS was injected and DMR signal was recorded for 60 minute. Antagonist properties of ligands were measured by assessing the concentration‐response curve to NPS in the absence and in presence of a fixed concentration of compound. FR900359 was added 60 minute before NPS, rolipram was incubated for 90 minute before NPS, while PTX was added 24 hours before NPS. Maximum picometer (pm) modifications (peak measured at 60 minute time point) were used to determine agonist response after baseline normalization.
All data were analyzed using Graph Pad Prism 6.0 (La Jolla, CA, USA). Concentration‐response curves were fitted using the four parameters log logistic equation. Data are expressed as mean ± SEM of n experiments performed in duplicate and were analyzed using one‐ or two‐way analysis of variance (ANOVA) followed by Dunnett's or Tukey's test for multiple comparisons wherever appropriate. […] Antagonists potencies were assayed at single concentrations against the concentration‐response curve to NPS and their pA2 was derived using the following equation: pA2 = log(CR − 1) − log[A], where CR is the ratio between agonist potency (EC50) in the presence and in absence of antagonist and [A] is the molar concentration of antagonist.

wild-type HEK293 cells = experiment: DMR assay in wild-type HEK293 cells (control); assay type: cell-based, Human; conditions: mean ± SEM, duplicate
Experimental: as §1
Confluent cells were subcultured using trypsin/EDTA and used for experiments. Cells were seeded at a density of 20 000 cells/well in 30 μL into fibronectin‐coated Enspire™‐LC 384‐wells plates and cultured for 20 hours to form a confluent monolayer. On the day of the experiment, cells were manually washed twice and maintained with assay buffer for 90 minutes before DMR experiments. DMR was monitored in real time with a temporal resolution of 22 seconds throughout the assay. Experiments were performed at 37°C, using an EnSight Multimode Plate Reader (PerkinElmer), that uses the Corning® Epic® Technology to measure the DMR signal. Agonism protocol: a 5‐minute baseline was first established, followed by adding compounds manually in a volume of 10 μL and recording compounds‐triggered DMR signal for 60 minute. Antagonism protocol: antagonists were added manually 25 minute before reading the 5‐minute baseline. After baseline establishment, NPS was injected and DMR signal was recorded for 60 minute. Antagonist properties of ligands were measured by assessing the concentration‐response curve to NPS in the absence and in presence of a fixed concentration of compound. FR900359 was added 60 minute before NPS, rolipram was incubated for 90 minute before NPS, while PTX was added 24 hours before NPS. Maximum picometer (pm) modifications (peak measured at 60 minute time point) were used to determine agonist response after baseline normalization.
All data were analyzed using Graph Pad Prism 6.0 (La Jolla, CA, USA). Concentration‐response curves were fitted using the four parameters log logistic equation. Data are expressed as mean ± SEM of n experiments performed in duplicate and were analyzed using one‐ or two‐way analysis of variance (ANOVA) followed by Dunnett's or Tukey's test for multiple comparisons wherever appropriate. Agonist potency was expressed as pEC50, which is the negative logarithm to base 10 of the agonist molar concentration that produces 50% of the maximal possible effect of that agonist. Antagonists potencies were assayed at single concentrations against the concentration‐response curve to NPS and their pA2 was derived using the following equation: pA2 = log(CR − 1) − log[A], where CR is the ratio between agonist potency (EC50) in the presence and in absence of antagonist and [A] is the molar concentration of antagonist.

[1] = ligand 1 μmol L^−1, 37°C, peak at 60 minute
[2] = ligand 10 μmol L^−1, 37°C, peak at 60 minute after baseline normalization

| intrinsic activity α ± SEM (murine NPSR; relative to NPS = 1.00, SEM) | fold less potent than NPS (DMR) (murine NPSR) | DMR response, HEK293mNPSR pm ± SEM (murine NPSR; ligand 10 μmol L^−1, 37°C) | Compound | DMR response, HEK293 pm ± SEM (wild-type HEK293 cells; [2]) | also measured |
| --- | --- | --- | --- | --- | --- |
| 1.01 ± 0.04 | approximately 30 fold | 761 ± 60 ^a pm | CSCC[C@H](NC(=O)CNC(=O)[C@@H](NC(=O)CNC(=O)[C@@H](NC(=O)CNC(=O)[C@H](CC(N)=O)NC(=O)[C@H](CCCNC(=N)N)NC(=O)[C@H](Cc1ccc(-c2ccccc2)cc1)NC(=O)[C@@H](N)CO)C(C)C)[C@@H](C)O)C(=O)N[C@@H](CCCCN)C(=O)N[C@@H](CCCCN)C(=O)N[C@H](C(=O)N[C@@H](CO)C(=O)N[C@@H](Cc1ccccc1)C(=O)N[C@@H](CCC(N)=O)C(=O)N[C@@H](CCCNC(=N)N)C(=O)N[C@@H](C)C(=O)N[C@@H](CCCCN)C(=O)N[C@@H](CO)C(=O)O)[C@@H](C)O [[Bip^2]NPS] (H-S[Bip]RNGVGTGMKKTSFQRAKS-OH; N-terminus and C-terminus assumed) | 191 ± 30 ^a pm | DMR response, HEK293mNPSR pm ± SEM (murine NPSR; ligand 1 μmol L^−1, 37°C): 577 ± 2 ^a pm; DMR response, HEK293 pm ± SEM (wild-type HEK293 cells; [1]): 47 ± 16 pm |
| 1.09 ± 0.04 | approximately 30 fold | 686 ± 50 ^a pm | CSCC[C@H](NC(=O)CNC(=O)[C@@H](NC(=O)CNC(=O)[C@@H](NC(=O)[C@@H](C)NC(=O)[C@H](CC(N)=O)NC(=O)[C@H](CCCNC(=N)N)NC(=O)[C@H](Cc1ccccc1)NC(=O)[C@@H](N)CO)C(C)C)[C@@H](C)O)C(=O)N[C@@H](CCCCN)C(=O)N[C@@H](CCCCN)C(=O)N[C@H](C(=O)N[C@@H](CO)C(=O)N[C@@H](Cc1ccccc1)C(=O)N[C@@H](CCC(N)=O)C(=O)N[C@@H](CCCNC(=N)N)C(=O)N[C@@H](C)C(=O)N[C@@H](CCCCN)C(=O)N[C@@H](CO)C(=O)O)[C@@H](C)O [[D‐Ala^5]NPS] (H-SFRN[dA]VGTGMKKTSFQRAKS-OH; N-terminus and C-terminus assumed) | 55 ± 14 pm | – |
| 1.03 ± 0.03 | – | 692 ± 15 ^a pm | SFRNGVATGMKKTSFQRAKS [[Ala^7]NPS] | 115 ± 33 pm | – |

The remaining lines, values behind:

| Compound | intrinsic activity α ± SEM (murine NPSR; relative to NPS = 1.00, SEM) | fold less potent than NPS (DMR) (murine NPSR) | DMR response, HEK293mNPSR pm ± SEM (murine NPSR; ligand 10 μmol L^−1, 37°C) | DMR response, HEK293 pm ± SEM (wild-type HEK293 cells; [2]) | also measured |
| --- | --- | --- | --- | --- | --- |
| C[N+](C)(C)CCOC(N)=O [Carbachol, reference compound] | – | – | – | – | DMR response, HEK293mNPSR pm ± SEM (murine NPSR; ligand 100 μmol L^−1, 37°C): 393 ± 9 ^a pm; DMR response, HEK293 pm ± SEM (wild-type HEK293 cells; ligand 100 μmol L^−1, 37°C, peak at 60 minute): 480 ± 51 ^a pm |
| CSCC[C@H](NC(=O)CNC(=O)[C@@H](NC(=O)CNC(=O)[C@@H](NC(=O)C(C)(C)NC(=O)[C@H](CC(N)=O)NC(=O)[C@H](CCCNC(=N)N)NC(=O)[C@H](Cc1ccccc1)NC(=O)[C@@H](N)CO)C(C)C)[C@@H](C)O)C(=O)N[C@@H](CCCCN)C(=O)N[C@@H](CCCCN)C(=O)N[C@H](C(=O)N[C@@H](CO)C(=O)N[C@@H](Cc1ccccc1)C(=O)N[C@@H](CCC(N)=O)C(=O)N[C@@H](CCCNC(=N)N)C(=O)N[C@@H](C)C(=O)N[C@@H](CCCCN)C(=O)N[C@@H](CO)C(=O)O)[C@@H](C)O [[Aib^5]NPS] (H-SFRN[Aib]VGTGMKKTSFQRAKS-OH) | – | – | – | – | EC50 (murine NPSR): 0.145 µM |
| COc1ccc(C2CNC(=O)C2)cc1OC1CCCC1 (stereo not shown) [rolipram, reference compound] | – | – | – | – | Effect of inhibitor on NPS-evoked DMR response (murine NPSR): did not change NPS effects |
| FRNGVGTGMKKTSFQRAKS [NPS(2‐20)] | 1.14 ± 0.05 | approximately 30 fold | 782 ± 46 ^a pm | 70 ± 10 pm | – |
| NPS(1‐6): NPS fragment (SFRNGV; Neuropeptide S; UniProt P0C0P6 70-75, looked up, fragment) | – | – | 356 ± 48 ^a pm | 25 ± 10 pm | Agonist potency pEC50 (CL95%) (murine NPSR): crc incomplete; intrinsic activity α ± SEM (murine NPSR; relative to NPS = 1.00): crc incomplete |
| NPS(3‐20): NPS fragment (RNGVGTGMKKTSFQRAKS; Neuropeptide S; UniProt P0C0P6 72-89, looked up, fragment) | – | – | 675 ± 54 ^a pm | 166 ± 14 ^a pm | Agonist potency pEC50 (CL95%) (murine NPSR): crc incomplete; intrinsic activity α ± SEM (murine NPSR; relative to NPS = 1.00): crc incomplete; DMR response, HEK293mNPSR pm ± SEM (murine NPSR; ligand 1 μmol L^−1, 37°C): 315 ± 17 ^a pm; DMR response, HEK293 pm ± SEM (wild-type HEK293 cells; [1]): 41 ± 14 pm |
| Pertussis Toxin [PTX] | – | – | – | – | Effect of inhibitor on NPS-evoked DMR response (murine NPSR): did not modify NPS‐evoked DMR response |
| SFRNGVGTGM [NPS(1‐10)] | 1.09 ± 0.14 | 100 fold | 683 ± 90 ^a pm | 27 ± 6 pm | fold less potent than NPS (DMR) (murine NPSR; listed as NPS (1‐10)): approximately 100 fold |
| SFRNGVGTGMKKTSFQRAKS [NPS, Neuropeptide S] | – | – | – | – | EC50 (murine NPSR): 0.00166 µM |
| [D‐Val^5]NPS | – | – | – | – | Agonist potency pEC50 (CL95%) (murine NPSR): Inactive; intrinsic activity α ± SEM (murine NPSR; relative to NPS = 1.00): Inactive |
